In ChEMBL document CHEMBL3600286, “Initial optimization and series evolution of diaminopyrimidine inhibitors of interleukin-1 receptor associated kinase 4” (Bioorg Med Chem Lett, 2015):
pIC50: −log10 of the molar value. In brackets after ≈: the same amount, converted by molar mass. Activity calls are given as the source filed them. No cut-off for these calls is given here.

Assays:
[1] = target: Misshapen-like kinase 1 (Homo sapiens) (UniProt Q8N4C8); assay: Inhibition of MINK1 (unknown origin)
[2] = Apparent permeability in pig LLC-PK1 cells; assay type: ADME, cell-based, Sus scrofa
[3] = target: T1, Interleukin-1 receptor-associated kinase 4 (Homo sapiens) (UniProt Q9NWZ3); assay: Potency index, ratio of IC50 for inhibition of IRAK4-dependent TLR4 signaling in human THP1-XBlue cells containing NF-kappaB-inducible SEAP reporter gene to IC50 for human IRAK4 (unknown origin); assay type: cell-based
T1 sequence (whole entry): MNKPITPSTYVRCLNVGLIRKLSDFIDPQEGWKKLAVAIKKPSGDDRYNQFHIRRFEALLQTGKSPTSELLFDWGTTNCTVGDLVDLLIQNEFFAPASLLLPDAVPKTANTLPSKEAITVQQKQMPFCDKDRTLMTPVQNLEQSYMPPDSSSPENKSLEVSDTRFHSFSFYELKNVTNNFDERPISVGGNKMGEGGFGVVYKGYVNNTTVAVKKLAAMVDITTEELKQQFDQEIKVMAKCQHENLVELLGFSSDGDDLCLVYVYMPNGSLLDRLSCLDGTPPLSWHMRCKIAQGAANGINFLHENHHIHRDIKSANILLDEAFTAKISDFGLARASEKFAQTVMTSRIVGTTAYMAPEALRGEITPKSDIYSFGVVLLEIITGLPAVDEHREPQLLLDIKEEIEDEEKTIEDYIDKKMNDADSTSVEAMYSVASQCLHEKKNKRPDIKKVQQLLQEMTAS

[4] = target: Cytochrome P450 2C9 (Homo sapiens, UniProt P11712); assay: Inhibition of CYP2C9 (unknown origin); assay type: ADME
[5] = target: BDNF/NT-3 growth factors receptor (Homo sapiens) (UniProt Q16620); assay: Inhibition of TRKB (unknown origin)
[6] = target: Receptor-type tyrosine-protein kinase FLT3 (Homo sapiens) (UniProt P36888); assay: Inhibition of FLT3 (unknown origin)
[7] = target: Cytochrome P450 3A4 (Homo sapiens, UniProt P08684); assay: Inhibition of CYP3A4 (unknown origin); assay type: ADME
[8] = target: T2, Interleukin-1 receptor-associated kinase 4 (Homo sapiens, UniProt Q9NWZ3); assay: Inhibition of human IRAK4 (unknown origin)
T2 sequence (Q9NWZ3 whole entry): T1 sequence (whole entry)

[9] = target: T2, Interleukin-1 receptor-associated kinase 4; assay: Inhibition of IRAK4-dependent TLR4 signaling in human THP1-XBlue cells containing NF-kappaB-inducible SEAP reporter gene assessed as inhibition of LPS-EK-induced TLR4 activation incubated at 37 degC for 1 hr by spectrophotometry; assay type: cell-based, THP-1
[10] = target: Cytochrome P450 2D6 (Homo sapiens, UniProt P10635); assay: Inhibition of CYP2D6 (unknown origin); assay type: ADME
[11] = target: T3, Tumor necrosis factor receptor superfamily member 1A (Homo sapiens, UniProt P19438); assay: Inhibition of TNFR in human THP1-XBlue cells containing NF-kappaB-inducible SEAP reporter gene assessed as inhibition of TNFalpha-induced TNFR activation incubated at 37 degC for 1 hr by spectrophotometry; assay type: cell-based, THP-1
T3 sequence (P19438 whole entry): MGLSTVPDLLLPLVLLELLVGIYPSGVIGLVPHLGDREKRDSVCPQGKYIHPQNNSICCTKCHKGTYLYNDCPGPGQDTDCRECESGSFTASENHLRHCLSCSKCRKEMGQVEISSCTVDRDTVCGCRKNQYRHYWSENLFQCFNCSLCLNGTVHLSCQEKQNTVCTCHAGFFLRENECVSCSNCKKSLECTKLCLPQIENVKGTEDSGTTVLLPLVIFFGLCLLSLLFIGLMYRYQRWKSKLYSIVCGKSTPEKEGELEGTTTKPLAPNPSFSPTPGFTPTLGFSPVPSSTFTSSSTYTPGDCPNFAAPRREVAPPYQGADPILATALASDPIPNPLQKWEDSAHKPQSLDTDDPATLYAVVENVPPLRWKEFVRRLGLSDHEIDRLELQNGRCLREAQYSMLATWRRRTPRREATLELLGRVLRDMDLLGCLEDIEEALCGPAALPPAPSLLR

[12] = target: Leucine-rich repeat serine/threonine-protein kinase 2 (Homo sapiens) (UniProt Q5S007); assay: Inhibition of LRRK2 (unknown origin)
[13] = Solubility in pH 7 solution; assay type: physicochemical
[14] = target: Dual specificity protein kinase CLK2 (Homo sapiens) (UniProt P49760); assay: Inhibition of CLK2 (unknown origin)
[15] = target: Tyrosine-protein kinase Lck (Homo sapiens) (UniProt P06239); assay: Inhibition of LCK (unknown origin)
[16] = target: Proto-oncogene tyrosine-protein kinase receptor Ret (Homo sapiens) (UniProt P07949); assay: Inhibition of RET (unknown origin)
[17] = target: Platelet-derived growth factor receptor alpha (Homo sapiens) (UniProt P16234); assay: Inhibition of PDGFRA (unknown origin)

Chain of Cytochrome P450 2D6 (P10635 whole entry): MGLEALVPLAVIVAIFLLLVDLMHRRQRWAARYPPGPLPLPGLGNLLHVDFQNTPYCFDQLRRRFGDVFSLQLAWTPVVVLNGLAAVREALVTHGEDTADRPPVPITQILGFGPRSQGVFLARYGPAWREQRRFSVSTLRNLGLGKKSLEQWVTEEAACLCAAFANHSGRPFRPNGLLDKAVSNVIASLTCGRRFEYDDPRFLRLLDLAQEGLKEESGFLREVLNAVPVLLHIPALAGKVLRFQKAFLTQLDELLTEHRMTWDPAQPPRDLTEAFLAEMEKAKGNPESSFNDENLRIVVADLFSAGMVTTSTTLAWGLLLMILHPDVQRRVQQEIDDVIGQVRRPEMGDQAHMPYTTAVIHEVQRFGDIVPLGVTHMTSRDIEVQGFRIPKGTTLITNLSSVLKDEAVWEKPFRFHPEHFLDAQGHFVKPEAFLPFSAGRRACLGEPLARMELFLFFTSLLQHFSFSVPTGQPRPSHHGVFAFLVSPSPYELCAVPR
Chain of Cytochrome P450 3A4 (P08684 whole entry): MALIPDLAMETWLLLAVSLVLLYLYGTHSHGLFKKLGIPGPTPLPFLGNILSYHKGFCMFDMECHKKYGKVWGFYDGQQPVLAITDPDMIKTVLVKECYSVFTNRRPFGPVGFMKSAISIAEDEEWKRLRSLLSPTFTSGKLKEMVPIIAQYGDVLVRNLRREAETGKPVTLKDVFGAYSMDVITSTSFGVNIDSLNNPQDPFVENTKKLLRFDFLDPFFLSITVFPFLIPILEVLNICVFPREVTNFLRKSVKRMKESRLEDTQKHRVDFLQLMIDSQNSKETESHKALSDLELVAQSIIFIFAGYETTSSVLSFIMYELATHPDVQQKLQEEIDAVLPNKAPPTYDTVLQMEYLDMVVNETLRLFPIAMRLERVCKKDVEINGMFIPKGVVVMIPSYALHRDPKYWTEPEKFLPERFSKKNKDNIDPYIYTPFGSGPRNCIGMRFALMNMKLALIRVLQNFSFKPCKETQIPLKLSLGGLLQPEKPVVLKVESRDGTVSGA
Chain of Cytochrome P450 2C9 (P11712 whole entry): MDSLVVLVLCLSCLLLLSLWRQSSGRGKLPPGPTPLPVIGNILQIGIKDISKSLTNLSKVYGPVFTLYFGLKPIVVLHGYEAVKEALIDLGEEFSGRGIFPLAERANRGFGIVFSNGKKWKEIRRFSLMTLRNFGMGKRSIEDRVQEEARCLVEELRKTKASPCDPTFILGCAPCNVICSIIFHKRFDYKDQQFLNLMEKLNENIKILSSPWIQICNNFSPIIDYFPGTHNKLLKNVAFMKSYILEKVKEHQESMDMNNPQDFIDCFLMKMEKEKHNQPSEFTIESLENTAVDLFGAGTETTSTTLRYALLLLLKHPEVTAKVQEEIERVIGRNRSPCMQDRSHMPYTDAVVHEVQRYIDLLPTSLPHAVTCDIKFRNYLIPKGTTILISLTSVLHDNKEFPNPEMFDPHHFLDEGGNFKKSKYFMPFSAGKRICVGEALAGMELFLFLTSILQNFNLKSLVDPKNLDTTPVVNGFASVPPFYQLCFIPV
Chain of Receptor-type tyrosine-protein kinase FLT3 (Homo sapiens) (P36888 whole entry): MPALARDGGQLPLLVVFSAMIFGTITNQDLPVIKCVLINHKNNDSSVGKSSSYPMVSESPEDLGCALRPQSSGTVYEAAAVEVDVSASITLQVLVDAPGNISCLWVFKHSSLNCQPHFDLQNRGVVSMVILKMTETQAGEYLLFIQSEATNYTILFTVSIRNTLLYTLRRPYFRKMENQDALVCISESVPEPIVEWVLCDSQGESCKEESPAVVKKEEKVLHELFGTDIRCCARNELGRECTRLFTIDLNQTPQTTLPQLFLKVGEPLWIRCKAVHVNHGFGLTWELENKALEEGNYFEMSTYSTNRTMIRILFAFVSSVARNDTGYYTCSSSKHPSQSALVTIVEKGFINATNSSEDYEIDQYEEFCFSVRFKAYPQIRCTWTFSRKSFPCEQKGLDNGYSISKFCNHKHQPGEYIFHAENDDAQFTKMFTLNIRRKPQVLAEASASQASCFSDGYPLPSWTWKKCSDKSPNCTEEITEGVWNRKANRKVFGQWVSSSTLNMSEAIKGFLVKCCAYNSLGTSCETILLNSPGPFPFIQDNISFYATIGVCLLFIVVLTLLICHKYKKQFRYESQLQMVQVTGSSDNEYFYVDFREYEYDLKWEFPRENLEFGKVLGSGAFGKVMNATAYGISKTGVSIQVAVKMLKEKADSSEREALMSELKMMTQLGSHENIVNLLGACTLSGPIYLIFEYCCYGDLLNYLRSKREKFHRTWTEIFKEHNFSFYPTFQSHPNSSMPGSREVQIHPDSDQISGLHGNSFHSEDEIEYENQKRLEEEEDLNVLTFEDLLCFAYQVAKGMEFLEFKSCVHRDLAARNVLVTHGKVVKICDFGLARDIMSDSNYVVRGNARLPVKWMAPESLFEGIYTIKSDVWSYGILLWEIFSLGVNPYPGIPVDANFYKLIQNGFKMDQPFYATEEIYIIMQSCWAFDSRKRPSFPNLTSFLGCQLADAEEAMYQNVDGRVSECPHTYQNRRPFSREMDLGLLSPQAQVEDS
Chain of Misshapen-like kinase 1 (Homo sapiens) (Q8N4C8 whole entry, looked up): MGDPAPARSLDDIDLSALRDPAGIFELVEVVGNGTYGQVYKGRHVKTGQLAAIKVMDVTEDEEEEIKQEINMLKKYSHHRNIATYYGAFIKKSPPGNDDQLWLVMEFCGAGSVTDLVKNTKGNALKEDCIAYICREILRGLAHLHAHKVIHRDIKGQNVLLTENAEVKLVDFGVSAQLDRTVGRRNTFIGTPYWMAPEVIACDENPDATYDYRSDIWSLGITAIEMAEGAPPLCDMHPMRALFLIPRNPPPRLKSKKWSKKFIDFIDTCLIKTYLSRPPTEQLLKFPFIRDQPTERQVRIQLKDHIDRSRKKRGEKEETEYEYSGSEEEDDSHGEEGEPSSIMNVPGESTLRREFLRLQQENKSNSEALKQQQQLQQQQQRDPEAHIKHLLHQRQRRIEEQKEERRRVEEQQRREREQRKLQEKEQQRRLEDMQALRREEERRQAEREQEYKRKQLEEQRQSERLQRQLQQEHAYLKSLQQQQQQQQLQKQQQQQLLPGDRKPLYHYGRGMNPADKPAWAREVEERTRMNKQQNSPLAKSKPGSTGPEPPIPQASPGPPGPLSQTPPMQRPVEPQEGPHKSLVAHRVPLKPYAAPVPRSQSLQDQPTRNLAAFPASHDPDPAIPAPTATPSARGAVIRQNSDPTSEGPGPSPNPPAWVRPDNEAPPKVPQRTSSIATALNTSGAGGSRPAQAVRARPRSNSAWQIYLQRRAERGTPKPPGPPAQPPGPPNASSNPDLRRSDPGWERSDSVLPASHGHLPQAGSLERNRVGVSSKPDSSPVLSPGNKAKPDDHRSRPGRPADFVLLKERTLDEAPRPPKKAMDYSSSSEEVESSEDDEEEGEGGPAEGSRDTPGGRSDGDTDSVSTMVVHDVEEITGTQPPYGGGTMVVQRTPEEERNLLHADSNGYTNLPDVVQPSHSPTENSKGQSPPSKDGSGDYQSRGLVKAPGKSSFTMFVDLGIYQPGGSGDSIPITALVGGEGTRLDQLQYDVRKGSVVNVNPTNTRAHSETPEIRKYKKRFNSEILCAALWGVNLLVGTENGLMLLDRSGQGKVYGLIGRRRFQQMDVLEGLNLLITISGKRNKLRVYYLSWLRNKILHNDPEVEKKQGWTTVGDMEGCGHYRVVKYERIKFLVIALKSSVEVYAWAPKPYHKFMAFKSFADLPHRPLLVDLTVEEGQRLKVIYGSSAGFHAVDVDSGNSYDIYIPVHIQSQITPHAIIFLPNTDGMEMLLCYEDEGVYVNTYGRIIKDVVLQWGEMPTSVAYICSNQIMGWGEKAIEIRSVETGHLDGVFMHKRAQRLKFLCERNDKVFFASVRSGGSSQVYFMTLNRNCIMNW
Chain of BDNF/NT-3 growth factors receptor (Homo sapiens) (Q16620 32-822 limits assumed): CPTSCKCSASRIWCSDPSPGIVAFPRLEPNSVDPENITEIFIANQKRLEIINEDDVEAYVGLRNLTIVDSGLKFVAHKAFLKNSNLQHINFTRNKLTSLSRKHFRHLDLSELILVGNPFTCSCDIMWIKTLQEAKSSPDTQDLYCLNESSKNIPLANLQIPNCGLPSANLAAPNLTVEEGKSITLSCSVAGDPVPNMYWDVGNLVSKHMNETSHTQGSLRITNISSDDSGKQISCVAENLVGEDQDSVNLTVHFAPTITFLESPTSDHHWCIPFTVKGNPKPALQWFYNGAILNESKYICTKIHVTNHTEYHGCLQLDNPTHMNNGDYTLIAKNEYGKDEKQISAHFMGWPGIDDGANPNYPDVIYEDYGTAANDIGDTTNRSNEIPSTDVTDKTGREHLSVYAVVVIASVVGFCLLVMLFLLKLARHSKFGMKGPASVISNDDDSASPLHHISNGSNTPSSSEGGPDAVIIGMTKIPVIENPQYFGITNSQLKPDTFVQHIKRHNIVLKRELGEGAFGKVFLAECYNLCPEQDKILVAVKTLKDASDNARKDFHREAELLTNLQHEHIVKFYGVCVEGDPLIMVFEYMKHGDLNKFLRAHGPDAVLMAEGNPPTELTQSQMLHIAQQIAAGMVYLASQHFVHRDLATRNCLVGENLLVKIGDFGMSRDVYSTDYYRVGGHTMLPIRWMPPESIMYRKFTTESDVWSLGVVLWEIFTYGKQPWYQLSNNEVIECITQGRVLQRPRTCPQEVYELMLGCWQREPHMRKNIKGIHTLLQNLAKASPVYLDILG

| Papp [2] [×10⁻⁶ cm/s] | Ratio IC50 [3] | pIC50 [4] | pIC50 [7] | pIC50 [8] | pIC50 [9] | pIC50 [10] | solubility [13] [µM] | SMILES | pIC50 [11] | other results |
| --- | --- | --- | --- | --- | --- | --- | --- | --- | --- | --- |
| > 15 | 10 | < 4.30 | < 4.30 | 8.40 | 7.06 | < 4.30 | 17 (≈ 8.58 µg/mL) | Cc1cc(Nc2ncc(-c3nc(-c4ccccc4)cs3)c(N[C@@H]3C[C@H](CO)[C@@H](O)[C@H]3O)n2)cc(C)n1 | < 4.51 | inhibition [1]: Active; inhibition [5]: Active; inhibition [6]: Active; inhibition [12]: Active |
|  |  |  |  | 6.03 |  |  |  | Cc1cc(Nc2ncc(-n3cccn3)c(N[C@@H]3C[C@H](CO)[C@@H](O)[C@H]3O)n2)cc(C)n1 |  |  |
|  |  |  |  | 7.05 |  |  |  | COc1cc(Nc2ncc(-c3nc(-c4ccccc4)cs3)c(N[C@@H]3C[C@H](CO)[C@@H](O)[C@H]3O)n2)ccn1 |  |  |
| > 15 | 10 | < 4.30 | < 4.30 | 9.13 | 7.26 | < 4.30 | 72 (≈ 34 µg/mL) | Cc1cc(Nc2ncc(-c3ccc4ccccc4n3)c(N[C@@H]3C[C@H](CO)[C@@H](O)[C@H]3O)n2)cc(C)n1 | < 4.51 | inhibition [1]: Active; inhibition [5]: Active; inhibition [14]: Active; inhibition [6]: Active; inhibition [15]: Active; inhibition [12]: Active |
|  |  |  |  | 7.92 |  |  |  | OC[C@H]1C[C@@H](Nc2nc(Nc3cncnc3)ncc2-c2nc3cnccc3s2)[C@H](O)[C@@H]1O |  |  |
|  |  |  |  | 6.19 |  |  |  | OC[C@H]1C[C@@H](Nc2nc(NC3CC3)ncc2-c2nc3cnccc3s2)[C@H](O)[C@@H]1O |  |  |
|  |  |  |  | 5.22 |  |  |  | COc1cc(Nc2ncc(-n3cccn3)c(N[C@@H]3C[C@H](CO)[C@@H](O)[C@H]3O)n2)ccn1 |  |  |
|  |  |  |  | 5.68 |  |  |  | Cc1cc(Nc2ncc(-c3cncs3)c(N[C@@H]3C[C@H](CO)[C@@H](O)[C@H]3O)n2)cc(C)n1 |  |  |
|  |  |  |  | 6.07 |  |  |  | Cc1cc(Nc2ncc(-c3cscn3)c(N[C@@H]3C[C@H](CO)[C@@H](O)[C@H]3O)n2)cc(C)n1 |  |  |
|  |  |  |  | < 4.70 |  |  |  | OC[C@H]1C[C@@H](Nc2nc(Nc3ccncc3)ncc2-c2nccs2)[C@H](O)[C@@H]1O |  |  |
|  |  |  |  | 7.74 |  |  |  | OC[C@H]1C[C@@H](Nc2nc(Nc3cccnc3)ncc2-c2nc3ccncc3s2)[C@H](O)[C@@H]1O |  |  |
|  |  |  |  | 7.96 |  |  |  | OC[C@H]1C[C@@H](Nc2nc(Nc3cccnc3)ncc2-c2nc3cnccc3s2)[C@H](O)[C@@H]1O |  |  |
| > 15 | 10 | < 4.30 | < 4.30 | 7.36 | 6.47 | < 4.30 | 31 (≈ 15.5 µg/mL) | OC[C@H]1C[C@@H](Nc2nc(Nc3ccnc(OC4CC4)c3)ncc2-c2ccc3ccccc3n2)[C@H](O)[C@@H]1O | < 4.51 |  |
| > 15 | 10 | < 4.30 | < 4.30 | 7.96 | 7.03 | < 4.30 | 19 (≈ 9.32 µg/mL) | Cc1cc(Nc2ncc(-c3nc(-c4ccccc4)cs3)c(N[C@@H]3C[C@H](CO)[C@@H](O)[C@H]3O)n2)ccn1 | < 4.51 |  |
|  |  |  |  | 7.92 |  |  |  | Cc1cc(Nc2ncc(-c3nc4ccncc4s3)c(N[C@@H]3C[C@H](CO)[C@@H](O)[C@H]3O)n2)ccn1 |  |  |
| > 15 | 10 | < 4.30 | < 4.30 |  | 7.60 | < 4.30 | 22 (≈ 10.4 µg/mL) | COc1cc(Nc2ncc(-c3ccc4ccccc4n3)c(N[C@@H]3C[C@H](CO)[C@@H](O)[C@H]3O)n2)ccn1 | < 4.51 |  |
| 2 | > 240 | < 4.30 | < 4.30 | 7.85 | 5.46 | < 4.30 | < 4 | Cc1cc(Nc2cc(N[C@@H]3C[C@H](CO)[C@@H](O)[C@H]3O)c(-c3nc4ccccc4s3)cn2)cc(C)n1 | < 4.51 | inhibition [14]: Active; inhibition [16]: Active; inhibition [6]: Active; inhibition [17]: Active |

| SMILES | Papp [2] [×10⁻⁶ cm/s] | Ratio IC50 [3] | pIC50 [4] | pIC50 [7] | pIC50 [8] | pIC50 [9] | pIC50 [10] | solubility [13] [µM] | pIC50 [11] | other results |
| --- | --- | --- | --- | --- | --- | --- | --- | --- | --- | --- |
| CC(C)Oc1cc(Nc2ncc(-c3ccc4ccccc4n3)c(N[C@@H]3C[C@H](CO)[C@@H](O)[C@H]3O)n2)ccn1 | > 15 | 10 | < 4.30 | < 4.30 |  | 6.67 | < 4.30 | 23 (≈ 11.6 µg/mL) | < 4.51 |  |
